{
  "source": "patent US20200102264A1",
  "about": "“MARMELIN ANALOGS AND METHODS OF USE IN CANCER TREATMENT” (THE UNIVERSITY OF KANSAS, priority 2014, published 2020)",
  "key": {"[1]": {"test_system": "caspase 3, caspase 8, caspase 9, Bcl2, BclXL, cytochrome c", "assay": "western blot analysis, apoptosis proteins", "format": "cell-based", "conditions": "HCT116 and SW480 cells, 48 h", "description": "(§1) The pathways for apoptosis were studied to determine whether the analogs were capable of inhibiting certain aspects of the pathways. […] HCT116 and SW480 cells treated with MRL, THB, THBCD, DHB, DHBCD and CD for 48 h and performed for western blot analysis. […] It is shown that THBCD also activates caspase 8 and caspase 9. Furthermore, THB and THBCD inhibit anti-apoptotic protein Bcl2 and BclXL levels. […] HCT116 and SW480 cells treated with MRL, THB, THBCD, DHB, DHBCD and CD for 48 h and performed for western blot analysis. Furthermore, THB and THBCD inhibit phosphorylation of Akt (FIG. 3)."}, "[2]": {"test_system": "Cyclin D1, c-Myc, Akt phosphorylation, COX-2, VEGF", "assay": "western blot analysis, cancer promoting genes", "format": "cell-based", "conditions": "HCT116 and SW480 cells, 48 h", "description": "as §1"}, "CAMKIV": {"target": "CAMKIV (Homo sapiens, UniProt Q16566)", "sequence (Q16566 whole entry, species assumed)": "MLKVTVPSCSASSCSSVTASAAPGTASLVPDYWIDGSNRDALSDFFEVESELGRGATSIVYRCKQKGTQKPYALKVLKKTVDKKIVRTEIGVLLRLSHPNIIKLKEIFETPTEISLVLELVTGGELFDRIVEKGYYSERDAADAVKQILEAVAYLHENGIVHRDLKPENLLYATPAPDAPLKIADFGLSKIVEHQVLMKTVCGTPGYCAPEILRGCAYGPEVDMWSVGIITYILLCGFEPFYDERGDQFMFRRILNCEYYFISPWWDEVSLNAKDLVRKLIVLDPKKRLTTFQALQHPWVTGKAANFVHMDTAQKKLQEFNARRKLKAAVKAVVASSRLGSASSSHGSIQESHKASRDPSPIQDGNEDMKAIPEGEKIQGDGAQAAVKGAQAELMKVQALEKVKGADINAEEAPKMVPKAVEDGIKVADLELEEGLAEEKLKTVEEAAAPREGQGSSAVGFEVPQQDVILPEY", "assay": "kinase activity against CAMKIV", "format": "biochemical"}, "[3]": {"test_system": "PanC-1 pancreatic cancer cells", "assay": "hexoseaminidase cell proliferation assay, PanC-1", "format": "cell-based", "description": "Using hexoseaminidase assay, we determined the effect of the compounds on cell proliferation. […] The IC50 value at 48 hours is below 10 μM in all the cancer cell lines.\nUsing hexoseaminidase assay, we determined the effect of the compounds on cell proliferation. […] The MRL16 IC50 value at 48 hours is below 0.3 μM in Colon cancer cell lines. […] Overall, the analogs can be used as chemotherapeutic agents against colon and pancreatic cancer."}, "DCLK1+ HCT116 cells": {"test_system": "DCLK1+ HCT116 cells", "assay": "flow cytometric analysis of DCLK1+ cells", "format": "cell-based", "conditions": "flow cytometry"}, "[4]": {"test_system": "HCT116 colon cancer tumor xenografts", "assay": "HCT116 colon cancer tumor xenografts in nude mice", "format": "in vivo", "description": "(§2) For in vivo, HCT116 cells were injected into the blanks of nude mice, after one week when there was a palpable tumor and these compounds were injected intraperitonially (5 mg/kg body weight) every day for 21 days. Tumor volumes were measured weekly. On 29th day mice were euthanized and the tumors were removed and weighed for use in histology, immunohistochemistry, and gene expression studies. Both THB and THBCD inhibited growth of the tumor. It is noted that the images of FIG. 4C are from left to right: control; THB; and THBCD.\nas §2, with “DBQ” for “Both THB and THBCD”, “inhibited the” for “inhibited”, “16C” for “4C”, “control;” for “control; THB;”, “DBQ.” for “THBCD.”\nFIGS. 19A and 19B show MRL 16 inhibits tumor growth, such as on colon cancer tumor xenografts. For in vivo, HCT116 cells were injected into the blanks of nude mice, after one week when there was a palpable tumor and these compounds were injected intraperitonially (2 mg/kg body weight) every day for 21 days. Tumor volumes were measured weekly. On 29th day mice were euthanized and the tumors were removed and weighed. MRL16 inhibited growth of the tumor."}, "[5]": {"conditions": "intraperitoneal 5 mg/kg body weight every day for 21 days"}},
  "data": [
    {"smiles": "O=C(N/N=C/c1ccc(O)c(O)c1O)c1cc2ccccc2cc1O", "note": "[MRL THB]", "values": [
      {"measurement": "anti-apoptotic protein Bcl2 and BclXL levels", "setting": "[1]", "result": "inhibit"},
      {"measurement": "cytochrome c", "setting": "[1]", "result": "inhibit"},
      {"measurement": "COX-2 and VEGF expressions", "setting": "[2]", "result": "inhibit"},
      {"measurement": "cyclin D1 and c-Myc levels", "setting": "[2]", "result": "inhibit"},
      {"measurement": "phosphorylation of Akt", "setting": "[2]", "result": "inhibit"},
      {"measurement": "fold less activity against CAMKIV than DCLK1", "setting": "CAMKIV", "result": 100, "unit": "fold"},
      {"measurement": "IC50", "setting": "[3]; PanC-1, 24 h", "result": "> 50", "unit": "µM"},
      {"measurement": "IC50", "setting": "[3]; PanC-1, 48 h", "result": 10, "unit": "µM"},
      {"measurement": "IC50", "setting": "[3]; PanC-1, 72 h", "result": 8, "unit": "µM"},
      {"measurement": "DCLK1+ cells", "setting": "DCLK1+ HCT116 cells", "result": "significant decrease"},
      {"measurement": "tumor volume", "setting": "[4]; [5]", "result": "significantly reduced"},
      {"measurement": "tumor weight", "setting": "[4]; [5]", "result": "significantly reduced"},
      {"measurement": "phosphorylation of Akt", "setting": "[4]; tumor tissues", "result": "significantly reduced"},
      {"measurement": "COX-2, VEGF and cyclin D1 expression", "setting": "[4]; tumor xenograft tissues, immunohistochemistry and western blot", "result": "significantly reduced"},
      {"measurement": "angiogenesis by CD31 staining", "setting": "[4]; xenograft tumor tissues, immunohistochemistry", "result": "inhibit"},
      {"measurement": "DCLK1 expression", "setting": "[4]; xenograft tumors, immunohistochemistry and western blot", "result": "inhibit"}
    ]}
  ]
}
